Measured values from patent US10781204B2, “TYK2 inhibitors and uses thereof” (Nimbus Lakshmi, Inc., priority 2015, dated 2020).

How the values were obtained:
[1] = system: Tyk2-pSTAT4 (IL-12 induced pSTAT4); assay: IL-12 induced pSTAT4 in human PBMC; type: cell-based; settings: 1.7 ng/mL IL-12, 30 minutes
In short: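 pSTAT4 and total STAT4 quantified by MSD in cell lysates after 30 minutes of 1.7 ng/mL IL-12 stimulation. Beforehand, compound (0.1% DMSO final) sat 1 hr at 37 C on 200,000 thawed buffy-coat PBMC per well in serum-containing medium.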

[2] = system: JAK2-pSTAT5 (GM-CSF induced pSTAT5); assay: GM-CSF induced pSTAT5 in human PBMC; type: cell-based; settings: Homo sapiens, PBMC, 20 min, 5 ng/mL GM-CSF
In short: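 Thawed human PBMC, 200,000 per well in serum-containing medium, were preincubated 1 hr at 37 C with compound in 0.1% DMSO. GM-CSF at 5 ng/mL final was added for 20 minutes, then pSTAT5 and total STAT5 in lysates were measured by MSD immunoassay.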

TYK2 = TYK2 (Homo sapiens (Human), UniProt P29597); assay: Tyk2 radioactive kinase assay; type: biochemical; settings: ATP 10 μM
In short: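 Recombinant human TYK2 (Invitrogen) was mixed with 20 μM peptide substrate in a buffer of 20 mM Hepes pH 7.5, 10 mM MgCl2, 1 mM EGTA, 0.02% Brij35, 0.02 mg/mL BSA, 0.1 mM […], 2 mM DTT and 1% DMSO, and compounds in DMSO were added. Adding ^33P-ATP (10 μM ATP) started the reaction, which ran 120 min at room temperature. Mixtures were then spotted onto P81 ion-exchange paper, washed thoroughly in 0.75% phosphoric acid, and counted for radioactivity.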

JAK2 = JAK2 (Homo sapiens (Human), UniProt O60674); assay: JAK2 radioactive kinase assay; type: biochemical; settings: ATP 10 μM
In short: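 Radiometric assay in Hepes pH 7.5, MgCl2, EGTA, Brij35, BSA, DTT, 1% DMSO, with 10 μM [33P]ATP, 120 min at room temp; P81 paper capture and counting. […]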

Sequence of JAK2 (O60674 whole entry): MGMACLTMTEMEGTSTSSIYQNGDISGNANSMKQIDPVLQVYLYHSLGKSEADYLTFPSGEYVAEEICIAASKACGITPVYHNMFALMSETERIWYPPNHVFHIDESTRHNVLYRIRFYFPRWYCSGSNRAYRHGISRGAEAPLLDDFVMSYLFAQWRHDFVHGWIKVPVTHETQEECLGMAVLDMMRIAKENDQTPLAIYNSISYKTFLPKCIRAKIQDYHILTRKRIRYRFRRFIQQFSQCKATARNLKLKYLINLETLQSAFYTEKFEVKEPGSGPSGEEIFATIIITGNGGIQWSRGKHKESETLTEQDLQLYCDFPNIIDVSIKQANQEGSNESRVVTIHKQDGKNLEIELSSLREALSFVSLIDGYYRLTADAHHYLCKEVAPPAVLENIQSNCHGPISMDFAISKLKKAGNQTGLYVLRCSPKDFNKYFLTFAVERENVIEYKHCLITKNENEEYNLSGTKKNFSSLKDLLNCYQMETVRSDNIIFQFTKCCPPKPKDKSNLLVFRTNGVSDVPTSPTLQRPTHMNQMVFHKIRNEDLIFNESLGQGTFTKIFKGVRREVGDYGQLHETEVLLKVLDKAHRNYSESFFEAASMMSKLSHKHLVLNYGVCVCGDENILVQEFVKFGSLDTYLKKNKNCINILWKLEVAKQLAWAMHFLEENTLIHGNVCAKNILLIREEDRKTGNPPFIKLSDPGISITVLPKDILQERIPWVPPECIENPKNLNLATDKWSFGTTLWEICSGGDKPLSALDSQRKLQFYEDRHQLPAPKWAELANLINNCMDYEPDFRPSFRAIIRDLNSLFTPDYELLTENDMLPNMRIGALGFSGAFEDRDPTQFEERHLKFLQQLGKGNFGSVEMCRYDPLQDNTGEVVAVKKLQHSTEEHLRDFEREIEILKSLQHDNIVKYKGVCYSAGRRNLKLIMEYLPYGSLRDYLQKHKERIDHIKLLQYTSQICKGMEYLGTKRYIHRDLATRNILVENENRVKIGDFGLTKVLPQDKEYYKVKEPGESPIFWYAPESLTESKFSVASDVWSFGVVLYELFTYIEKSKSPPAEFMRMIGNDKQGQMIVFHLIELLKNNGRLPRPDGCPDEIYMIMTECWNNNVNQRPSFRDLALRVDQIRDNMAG
Sequence of TYK2 (P29597 whole entry): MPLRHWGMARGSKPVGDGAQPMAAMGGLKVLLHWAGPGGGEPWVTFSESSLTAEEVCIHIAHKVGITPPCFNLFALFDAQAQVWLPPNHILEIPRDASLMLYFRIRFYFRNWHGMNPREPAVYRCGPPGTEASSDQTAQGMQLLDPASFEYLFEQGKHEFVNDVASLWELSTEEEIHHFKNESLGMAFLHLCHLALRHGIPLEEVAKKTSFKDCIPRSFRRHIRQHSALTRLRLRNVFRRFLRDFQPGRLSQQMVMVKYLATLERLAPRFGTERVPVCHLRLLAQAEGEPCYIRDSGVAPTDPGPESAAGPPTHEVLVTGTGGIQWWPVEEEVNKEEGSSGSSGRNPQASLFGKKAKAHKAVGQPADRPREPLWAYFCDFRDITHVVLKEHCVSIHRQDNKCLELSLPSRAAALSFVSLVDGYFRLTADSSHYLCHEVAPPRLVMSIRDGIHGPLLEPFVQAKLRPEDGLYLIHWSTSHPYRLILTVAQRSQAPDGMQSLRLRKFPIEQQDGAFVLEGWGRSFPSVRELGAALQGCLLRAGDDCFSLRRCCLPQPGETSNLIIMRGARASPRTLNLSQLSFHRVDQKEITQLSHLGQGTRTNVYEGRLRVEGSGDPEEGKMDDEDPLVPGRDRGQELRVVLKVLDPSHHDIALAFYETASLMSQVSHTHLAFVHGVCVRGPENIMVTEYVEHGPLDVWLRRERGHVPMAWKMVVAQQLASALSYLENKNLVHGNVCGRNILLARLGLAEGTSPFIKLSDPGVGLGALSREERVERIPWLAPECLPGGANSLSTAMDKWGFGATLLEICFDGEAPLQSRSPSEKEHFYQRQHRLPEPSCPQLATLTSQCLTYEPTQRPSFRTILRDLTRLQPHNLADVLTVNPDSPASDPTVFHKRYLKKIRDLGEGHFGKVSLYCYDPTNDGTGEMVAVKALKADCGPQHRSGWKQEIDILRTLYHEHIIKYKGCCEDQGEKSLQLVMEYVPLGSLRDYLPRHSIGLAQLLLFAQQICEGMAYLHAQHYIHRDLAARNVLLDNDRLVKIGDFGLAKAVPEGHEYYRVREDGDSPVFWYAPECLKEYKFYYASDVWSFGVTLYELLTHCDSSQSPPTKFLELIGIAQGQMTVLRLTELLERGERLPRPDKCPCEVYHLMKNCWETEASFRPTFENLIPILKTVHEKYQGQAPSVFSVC

SMILES | EC50 ([1]; Homo sapiens, PBMC, 0.5 h) [nM] | EC50 [2] [nM] | Ki (TYK2) [nM] | Ki (JAK2) [nM] | EC50 [1] [nM]
N#Cc1cccc(F)c1-c1cc(-n2ccc(N3CCC[C@H](C(N)=O)C3)n2)c2c(n1)CNC2=O [I-126, (S)-1-(1-(2-(2-cyano-6-fluorophenyl)-5-oxo-6,7-dihydro-5H-pyrrolo[3,4-b]pyridin-4-yl)-1H-pyrazol-3-yl)piperidine-3-carboxamide] | 100 to 2000 | 100 to 2000 | 0.1 to 10 | 10 to 100 | –
CC(=O)N[C@@H]1CCCN(c2ccn(-c3cc(-c4c(F)cccc4C#N)nc4c3C(=O)NC4)n2)C1 [I-129, (R)-N-(1-(1-(2-(2-cyano-6-fluorophenyl)-5-oxo-6,7-dihydro-5H-pyrrolo[3,4-b]pyridin-4-yl)-1H-pyrazol-3-yl)piperidin-3-yl)acetamide] | 100 to 2000 | > 2000 | 0.1 to 10 | 10 to 100 | –
N#Cc1cccc(F)c1-c1cc(-n2ccc(N3CCOC[C@@H](O)C3)n2)c2c(n1)CNC2=O [I-131, (S)-3-fluoro-2-(4-(3-(6-hydroxy-1,4-oxazepan-4-yl)-1H-pyrazol-1-yl)-5-oxo-6,7-dihydro-5H-pyrrolo[3,4-b]pyridin-2-yl)benzonitrile] | 30 to 100 | > 2000 | 0.1 to 10 | 10 to 100 | –
CS(=O)(=O)N[C@H]1CCN(c2ccn(-c3cc(-c4c(F)cccc4C#N)nc4c3C(=O)NC4)n2)C1 [I-135, (S)-N-(1-(1-(2-(2-cyano-6-fluorophenyl)-5-oxo-6,7-dihydro-5H-pyrrolo[3,4-b]pyridin-4-yl)-1H-pyrazol-3-yl)pyrrolidin-3-yl)methanesulfonamide] | 100 to 2000 | > 2000 | 0.1 to 10 | 0.1 to 10 | –
N#Cc1cccc(F)c1-c1cc(-n2ccc(N3CC[C@@H](O)[C@@H](O)C3)n2)c2c(n1)CNC2=O [I-137, 2-(4-(3-((3S,4R)-3,4-dihydroxypiperidin-1-yl)-1H-pyrazol-1-yl)-5-oxo-6,7-dihydro-5H-pyrrolo[3,4-b]pyridin-2-yl)-3-fluorobenzonitrile] | – | > 2000 | 0.1 to 10 | 0.1 to 10 | 100 to 2000

Further lines, results first:

EC50 ([1]; Homo sapiens, PBMC, 0.5 h) [nM] | EC50 [2] [nM] | Ki (TYK2) [nM] | Ki (JAK2) [nM] | EC50 [1] [nM] | SMILES
100 to 2000 | 100 to 2000 | 0.1 to 10 | 10 to 100 | – | N#Cc1cccc(F)c1-c1cc(-n2ccc(N3CCC[C@@H](C(N)=O)C3)n2)c2c(n1)CNC2=O [I-125, (R)-1-(1-(2-(2-cyano-6-fluorophenyl)-5-oxo-6,7-dihydro-5H-pyrrolo[3,4-b]pyridin-4-yl)-1H-pyrazol-3-yl)piperidine-3-carboxamide]
100 to 2000 | 100 to 2000 | 0.1 to 10 | 10 to 100 | – | CC(=O)N[C@H]1CCCN(c2ccn(-c3cc(-c4c(F)cccc4C#N)nc4c3C(=O)NC4)n2)C1 [I-130, (S)-N-(1-(1-(2-(2-cyano-6-fluorophenyl)-5-oxo-6,7-dihydro-5H-pyrrolo[3,4-b]pyridin-4-yl)-1H-pyrazol-3-yl)piperidin-3-yl)acetamide]
30 to 100 | > 2000 | 0.009 to 0.1 | 0.1 to 10 | – | N#Cc1cccc(F)c1-c1cc(-n2ccc(N3CC[C@H](O)[C@H](O)C3)n2)c2c(n1)CNC2=O [I-136, 2-(4-(3-((3R,4S)-3,4-dihydroxypiperidin-1-yl)-1H-pyrazol-1-yl)-5-oxo-6,7-dihydro-5H-pyrrolo[3,4-b]pyridin-2-yl)-3-fluorobenzonitrile]
100 to 2000 | 100 to 2000 | 0.1 to 10 | 10 to 100 | – | N#Cc1cccc(F)c1-c1cc(-n2ccc(N3CCCC3=O)n2)c2c(n1)CNC2=O [I-139, 3-fluoro-2-(5-oxo-4-(3-(2-oxopyrrolidin-1-yl)-1H-pyrazol-1-yl)-6,7-dihydro-5H-pyrrolo[3,4-b]pyridin-2-yl)benzonitrile]
100 to 2000 | 100 to 2000 | 0.009 to 0.1 | 0.1 to 10 | – | N#Cc1cccc(F)c1-c1cc(-n2ccc(N3CCNC(=O)CC3)n2)c2c(n1)CNC2=O [I-141, 3-fluoro-2-(5-oxo-4-(3-(5-oxo-1,4-diazepan-1-yl)-1H-pyrazol-1-yl)-6,7-dihydro-5H-pyrrolo[3,4-b]pyridin-2-yl)benzonitrile]
